Laboratory results taken from patent publication US9492468B2, “Methods and compositions for treatment of acute heart failure” (PERICOR THERAPEUTICS, INC., priority 2008, dated 2016).

Assays:
[1] = biological target: T1, NBTI-sensitive adenosine transporter (Homo sapiens, UniProt Q99808); assay: Ligand status at adenosine transporter; assay type: binding
T1 sequence (Q99808 1-456): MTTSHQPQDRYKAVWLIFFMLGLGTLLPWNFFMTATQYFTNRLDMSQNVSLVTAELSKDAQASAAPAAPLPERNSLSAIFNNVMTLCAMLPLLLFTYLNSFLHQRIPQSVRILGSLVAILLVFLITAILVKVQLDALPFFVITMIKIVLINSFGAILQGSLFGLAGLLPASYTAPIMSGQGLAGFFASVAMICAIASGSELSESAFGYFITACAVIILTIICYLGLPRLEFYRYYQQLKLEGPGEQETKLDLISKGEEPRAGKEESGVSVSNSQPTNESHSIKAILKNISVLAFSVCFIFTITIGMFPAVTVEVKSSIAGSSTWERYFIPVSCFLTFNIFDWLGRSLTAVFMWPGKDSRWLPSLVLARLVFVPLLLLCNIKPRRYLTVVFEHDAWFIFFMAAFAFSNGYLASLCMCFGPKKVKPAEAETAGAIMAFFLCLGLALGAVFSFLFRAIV

[2] = in man; cited from earlier work
NT-ProBNP = assay: Plasma NT-proBNP, 6 hours infusion study; assay type: in vivo, dog; conditions: HF dogs n=6; for Plasma NT-ProBNP: iv 10 μg/kg/min constant infusion
Description: Six heart failure dogs described in Example 1 were used. Studies using active drug and placebo were performed in each dog in random order a minimum of one week apart. After baseline hemodynamic, angiographic and echocardiographic measurements, GP-531 tartrate or placebo was administered as a continuous constant intravenous infusion for 6 hours. The dose of GP-531 tartrate was 10 μg/kg/min. Complete hemodynamic, angiographic and echocardiographic measurements were made during baseline, and at 1, 2, 3, 4, 5 and 6 hours after initiating drug infusion. In addition, myocardial oxygen consumption (MVO2) was measured at baseline and 4 and 6 hours after initiating drug or saline infusion. LV pressure-volume relationships (P-V Loops) were also measured at baseline and at 6 hours after initiating drug or saline infusion to assess load independent contractility and relaxation. Venous blood samples were obtained at baseline and hourly thereafter. Blood samples (at least […]) were centrifuged at 3000 rpm for 10 minutes and plasma withdrawn and placed in cryostorage tubes and stored upright at −20° C. until needed. Venous blood samples were used to evaluate plasma levels of troponin-I and plasma levels of n-terminal pro-brain natriuretic peptide (NT-proBNP).
Plasma biomarkers were measured in all dogs at all study time points. Troponin I (TnI) was determined in plasma based on the principle of the double antibody sandwich enzyme-linked immunosorbent assay (ELISA) (Hirano, T., et al, Immunol Today 1990, 11:443-449) and NT-pro-BNP based on competitive ELISA (Bonow, R. O. Circulation 1996, 93:1946-1950). Both biomarkers were assayed using commercially available assay kits. Kits for NT-proBNP and TnI were purchased from ALPCO Diagnostics, Salem, N.H. Using standard curves and software, the concentration of each biomarker was expressed as ng/ml for TnI and fmol/ml for NT-proBNP.

For `NC(=O)c1ncn(C2OC(CNCc3ccccc3)C(O)C2O)c1N` [GP-531, 5-amino-1-β-D-(5-benzylamino-5-deoxy-1-β-D-ribofuranosyl)imidazole-4 carboxamide], the “Ligand for NBTI-sensitive adenosine transporter” value [1] is given as “has not been shown to be a ligand”, the Oral bioavailability [2] is given as roughly 10% and the “Plasma NT-ProBNP” value (NT-ProBNP; 1 h) is given as 140 ± 13 fmol/mL. For the same compound, the “Plasma NT-ProBNP” value (NT-ProBNP; 2 h) was 131 ± 11 fmol/mL, the “Plasma NT-ProBNP” value (NT-ProBNP; 3 h) was 127 ± 12 fmol/mL and the “Plasma NT-ProBNP” value (NT-ProBNP; 4 h) was 134 ± 11 fmol/mL. For the same compound, the “Plasma NT-ProBNP” value (NT-ProBNP; 5 h) was 130 ± 10 fmol/mL, the “Plasma NT-ProBNP” value (NT-ProBNP; 6 h) was 122 ± 10 fmol/mL and the “Effect on plasma NT-proBNP” value (NT-ProBNP; iv 10 μg/kg/min for 6 h) was “significantly reduced”.
